The values below come from the supplement of paper PMC12317010.

Structures are written as SMILES. Structures can show the parent of a compound that is named as a salt.

The data set can be described thus: collision cross section in nitrogen (drift tube, single-field); higher = larger gas-phase ion size.
[1] abbreviates: ion type: [M+H], ion source: ESI, ion mode: Positive.
The mark [2] stands for this setting: ion type: [M+Na], ion source: ESI, ion mode: Positive.
Where [3] appears, read: ion type: [M-H], ion source: ESI, ion mode: Negative.
Where [4] appears, read: ion type: [M+H], ion source: APCI, ion mode: Positive.
Where [5] appears, read: ion type: [M+], ion source: APCI, ion mode: Positive.
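Note: chemical standards at 10 µM analysed by drift tube IMS-QTOF MS in about 3.95 torr nitrogen, mean of duplicate injections differing ≤1%, mass error below 10 ppm.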

Take `CC1(C)[C@@H](O[C@H]2O[C@H](C(=O)O)[C@@H](O)[C@H](O)[C@H]2O[C@@H]2O[C@H](C(=O)O)[C@@H](O)[C@H](O)[C@H]2O)CC[C@]2(C)[C@H]3C(=O)C=C4[C@@H]5C[C@@](C)(C(=O)O)CC[C@]5(C)CC[C@@]4(C)[C@]3(C)CC[C@@H]12` [Ammonium glycyrrhizinate trihydrate]: the “collision cross section in nitrogen” value is 286.8 Å² under setting [1], 294.4 Å² under setting [2] and 282.6 Å² under setting [3].

For the molecule `O=[N+]([O-])O` [Ammonium nitrate], under setting [3], the “collision cross section in nitrogen” value came to 104.5 Å².

As for `Clc1ccc2c(c1)C(N1CCNCC1)=Nc1ccccc1O2` [Amoxapine], the “collision cross section in nitrogen” value is, setting by setting: under setting [4], 172.4 Å²; under setting [1], 172.6 Å².

As for `Nc1cc(-c2ccncc2)c[nH]c1=O` [Amrinone], the “collision cross section in nitrogen” value under setting [4] worked out at 142.7 Å², the “collision cross section in nitrogen” value under setting [1] is listed as 143.3 Å² and the “collision cross section in nitrogen” value under setting [3] was determined as 140.7 Å².

In the case of `c1cncc([C@@H]2CCCCN2)c1` [Anabasine], the “collision cross section in nitrogen” value under setting [4] is on record as 136.4 Å² and the “collision cross section in nitrogen” value under setting [1] was 135.9 Å².

`CC(C)(C#N)c1cc(Cn2cncn2)cc(C(C)(C)C#N)c1` [Anastrozole]: the “collision cross section in nitrogen” value is recorded as 183.5 Å² under setting [1], 188.9 Å² under setting [2] and 178.4 Å² under setting [3].

Regarding `COc1ccc(C(O)(c2cncnc2)C2CC2)cc1` (stereo not given) [Ancymidol], the “collision cross section in nitrogen” value is reported as 164.3 Å² under setting [4] and 164.2 Å² under setting [1].

Turning to `CC(C)(C)c1cc(CCC(=O)NCCCCCCNC(=O)CCc2cc(C(C)(C)C)c(O)c(C(C)(C)C)c2)cc(C(C)(C)C)c1O` [Antioxidant 1098], the “collision cross section in nitrogen” value amounted to 263.2 Å² under setting [4]; 263.3 Å² under setting [1]; 259.8 Å² under setting [2]; 271.7 Å² under setting [5]; 252.1 Å² under setting [3].

Take `CCCCN1C(=O)[C@@H]([C@H](O)C2CCCCC2)NC(=O)C12CCN(Cc1ccc(Oc3ccc(C(=O)O)cc3)cc1)CC2` [Aplaviroc hydrochloride]: the “collision cross section in nitrogen” value under setting [1] is 260.4 Å², the “collision cross section in nitrogen” value under setting [2] came out at 238.6 Å² and the “collision cross section in nitrogen” value under setting [3] is 235.7 Å².

Consider `CN1CCc2cccc3c2[C@H]1Cc1ccc(O)c(O)c1-3` [Apomorphine hydrochloride], for which the “collision cross section in nitrogen” value by setting is: under setting [4], 162.3 Å²; under setting [1], 162.5 Å².

As for `C[C@@H]1CCN(C(=O)[C@H](CCCNC(=N)N)NS(=O)(=O)c2cccc3c2NC[C@H](C)C3)[C@@H](C(=O)O)C1` [Argatroban monohydrate], the “collision cross section in nitrogen” value is on record as 217 Å² under setting [1], 221.7 Å² under setting [2] and 207.8 Å² under setting [3].

As for `CC1CNc2c(cccc2S(=O)(=O)N[C@@H](CCCNC(=N)N)C(=O)N2CC[C@@H](C)C[C@@H]2C(=O)O)C1` (stereo not given in full) [Argatroban], the “collision cross section in nitrogen” value under setting [1] is reported as 216.7 Å², the “collision cross section in nitrogen” value under setting [2] turned out to be 221.2 Å² and the “collision cross section in nitrogen” value under setting [3] turned out to be 207.5 Å².

For `C[As+](C)(C)CC(=O)[O-]` [Arsenobetaine], the “collision cross section in nitrogen” value under setting [1] was 118 Å².

With `CCCCCCCCCCCCCCCC(=O)OC[C@H](O)[C@H]1OC(=O)C(O)=C1O` [Ascorbyl palmitate], under setting [3], the “collision cross section in nitrogen” value stood at 202.4 Å².

As for `COc1ccc(CCN2CCC(Nc3nc4ccccc4n3Cc3ccc(F)cc3)CC2)cc1` [Astemizole], the “collision cross section in nitrogen” value was 210.8 Å² under setting [1], 213.2 Å² under setting [2] and 227.8 Å² under setting [3].

With `COC(=O)NS(=O)(=O)c1ccc(N)cc1` [Asulam], the “collision cross section in nitrogen” value under setting [3] is on record as 150.4 Å².

Regarding `CC(C)NCC(O)COc1ccc(CC(N)=O)cc1` (stereo not given) [Atenolol], the “collision cross section in nitrogen” value is reported as 157.9 Å² under setting [4], 157.8 Å² under setting [1] and 164.2 Å² under setting [2].

As for `CC(C)c1c(C(=O)Nc2ccccc2)c(-c2ccccc2)c(-c2ccc(F)cc2)n1CC[C@@H](O)C[C@@H](O)CC(=O)O` [Atorvastatin calcium], the “collision cross section in nitrogen” value came to 229.8 Å² under setting [4]; 230.3 Å² under setting [1]; 232.2 Å² under setting [2]; 224.3 Å² under setting [5]; 228.6 Å² under setting [3].

For the molecule `CC(C)c1c(C(=O)Nc2ccccc2)c(-c2ccccc2)c(-c2ccc(F)cc2)n1CC[C@@H](O)C[C@@H](O)CC(=O)O` [Atorvastatin], the “collision cross section in nitrogen” value is 229.1 Å² under setting [4], 229.7 Å² under setting [1], 231.4 Å² under setting [2] and 228.4 Å² under setting [3].

Take `CCNc1nc(NC(C)C)nc(OC)n1` [Atraton]: the “collision cross section in nitrogen” value by setting is: under setting [1], 150.5 Å²; under setting [2], 168.1 Å².

`CCNc1nc(Cl)nc(NC(C)C)n1` [Atrazine]: the “collision cross section in nitrogen” value under setting [4] is on record as 149 Å² and the “collision cross section in nitrogen” value under setting [1] is 149.5 Å².

In the case of `CN(C)c1ccc(C(=N)c2ccc(N(C)C)cc2)cc1` [Auramine hydrochloride], the “collision cross section in nitrogen” value is 168.3 Å² under setting [4] and 169.8 Å² under setting [1].

With `O=C1CCCCCCCCCCCN1` [Azacyclotridecan-2-one], the “collision cross section in nitrogen” value reads like this: under setting [4], 148.2 Å²; under setting [1], 148.8 Å².

For `COP(=O)(OC)SCn1c(=O)oc2cc(Cl)cnc21` [Azamethiphos], the “collision cross section in nitrogen” value under setting [4] amounted to 160.6 Å², the “collision cross section in nitrogen” value under setting [1] was found to be 161.5 Å² and the “collision cross section in nitrogen” value under setting [2] came to 171.2 Å².

With `Cn1cnc([N+](=O)[O-])c1Sc1ncnc2nc[nH]c12` [Azathioprine], the “collision cross section in nitrogen” value runs as follows: under setting [4], 158.6 Å²; under setting [2], 172.4 Å²; under setting [3], 155.5 Å².

With `CCOP(=S)(OCC)SCn1nnc2ccccc2c1=O` [Azinphos-ethyl], the “collision cross section in nitrogen” value under setting [2] was determined as 177.9 Å².

Take `CSc1nc(N=[N+]=[N-])nc(NC(C)C)n1` [Aziprotryne]: the “collision cross section in nitrogen” value runs as follows: under setting [4], 149.1 Å²; under setting [1], 148.9 Å².

For `c1ccc(N=Nc2ccccc2)cc1` [Azobenzene], the “collision cross section in nitrogen” value under setting [4] is listed as 139.5 Å².

For `O=S(=O)(O)c1ccc(N=Nc2cc(S(=O)(=O)O)c3ccccc3c2O)c2ccccc12` [Azorubine], the “collision cross section in nitrogen” value under setting [3] worked out at 211.8 Å².

With `CO/C=C(/C(=O)OC)c1ccccc1Oc1cc(Oc2ccccc2C#N)ncn1` [Azoxystrobin], the “collision cross section in nitrogen” value runs as follows: under setting [4], 196.5 Å²; under setting [1], 195 Å²; under setting [2], 199 Å².

With `O=S(=O)(c1ccc(OCc2ccccc2)cc1)c1ccccc1O` [BPS-MPE4], the “collision cross section in nitrogen” value runs as follows: under setting [1], 186.1 Å²; under setting [2], 201.9 Å²; under setting [3], 183.9 Å².

For `CCCCC(CC)C(=O)O` (stereo not given) [Barium bis(2-ethylhexanoate)], under setting [3], the “collision cross section in nitrogen” value is 137.4 Å².

In the case of `CCNc1ccc(C(=C2C=CC(=[N+](CC)CC)C=C2)c2ccc(N(CC)CC)cc2)c2ccccc12` [Basic Blue 7], the “collision cross section in nitrogen” value was determined as 241.9 Å² (ion source: APCI, ion mode: Positive, ion type: [M]+ (permanent cation)) and 240.6 Å² (ion source: ESI, ion mode: Positive, ion type: [M]+ (permanent cation)).

For `CCOC(=O)Cn1c(=O)sc2cccc(Cl)c21` [Benazolin-ethyl], the “collision cross section in nitrogen” value under setting [2] is listed as 165.4 Å².

Turning to `CNC(=O)Oc1cccc2c1OC(C)(C)O2` [Bendiocarb], the “collision cross section in nitrogen” value under setting [2] was 157 Å².
